One experiment deals with normal rats. The conditions noted are these: intravenous; cited from earlier work.
For experiment [1], the system named is postnatal rat brain. The experiment can be described thus: Immunoblotting of VEGF, NGF and ETB receptors in the postnatal rat brain after IRL-1620. The experiment is classed as in vivo, Sprague-Dawley rats. The source says:
(§1) After 21 days of gestation, 70 male and 65 female pups were born to 10 pregnant female rats. 30 male pups were randomly selected for Study I, and divided into 4 groups as follows: Group 1=male pups euthanized on postnatal day 1 (N=10); Group 2=male pups euthanized on postnatal day 7 (N=10); Group 3=male pups euthanized on postnatal day 14 (N=5); Group 4=male pups euthanized on postnatal day 28 (N=5). An additional 20 male pups were randomly selected for Study II, and divided into 2 groups: Control (N=10) and IRL-1620-treated (N=10). Pups in Study II received 3 doses of either isotonic saline (1 ml/kg) or ETB receptor agonist IRL-1620 (5 μg/kg; American Peptide Co, Inc., Sunnyvale, Calif.) on postnatal day 21. The doses were given intravenously at 2 hour intervals. All pups were weighed and evaluated for developmental and behavioral characteristics at postnatal day 1, 7, 14 and 28. Developmental and behavioral characteristics included active vs. sluggish behavior, healthy vs. shedding fur, licking, grooming, aggressive behavior, defecation, urination and wet dog shakes.
Protein levels of VEGF, NGF and ETB receptors in the postnatal rat brain of animals in Study II were estimated using immunoblotting technique. Animals were decapitated and the brains were removed on postnatal day 28, which is 7 days post administration of either saline or ETB receptor agonist, IRL-1620. The tissue was homogenized in 10× (w/v) RIPA lysis buffer, and protein concentration was determined according to the Lowry method, using bovine serum albumin as standard (Lowry et al., 1951). Protein (60 μg) was denatured in Laemmli sample buffer and resolved in 10% SDS-PAGE, and then transferred onto nitrocellulose membrane. […] Protein expression was analyzed using Image J (NIH) software.

For experiment [2], the system named is postnatal rat brain. As to the kind of experiment: Immunofluorescent labeling of ETB receptors, VEGF and NGF in the postnatal rat brain after IRL-1620. The experiment is classed as in vivo, Sprague-Dawley rats. As to conditions: IRL-1620 on postnatal day 21, brain at day 28, vs control. Here is the method:
Timed pregnant female Sprague-Dawley rats (Harlan, Indianapolis, Ind.) were caged singly in a room controlled for ambient temperature (23±1° C.), humidity (50±10%) and a 12 h light/dark cycle (6:00 am-6:00 pm). Food and water were available ad libitum. All animal care and use for procedures were approved by the Institutional Animal Care and Use Committee (IACUC) of Midwestern University. In order to avoid variation due to hormonal changes, male pups only were separated and utilized for this study. The pups were euthanized via decapitation on postnatal day 1, 7, 14 and 28. The brains were aseptically removed and processed for either immunofluorescent labeling or immunoblot analysis of ETB receptors, VEGF and NGF.
as §1
Immunofluorescently labeled antibodies were used to determine the expression of ETB receptors, VEGF and NGF in the developing rat brain. Male rat pups were euthanized via decapitation, and the brains were removed at postnatal day 1, 7, 14 and 28. The brains were washed in isotonic saline and transferred to a 4% paraformaldehyde (PFA)/NaPO4 buffer solution for 2 hours to fix the tissue, followed by suspension in a 20% sucrose/4% PFA solution for 48 hours at 4° C. Brains were then sliced into 20 μm thick coronal sections at −30° C. using a cryostat (Microtome cryostat HM 505 E; Walldorf, Germany). Sections were processed for immunofluorescent staining as described by Loo, et al. (Loo et al., 2002), with minor modifications. […] Fluorescence was detected using an inverted fluorescent microscope (Nikon Eclipse TiE, Melville, N.Y.). […]

[3] abbreviates: IRL-1620 on postnatal day 21, brain at day 28, vs control.

*1 amine or outer side, *2 acyl side, *3 side chain or, on linkers, in order; H or OH if unused. Where no end group is shown, it is not given here. Suc = O=C(CCC(=O)[*:2])[*:1]

Regarding “Suc-Asp-Glu-Glu-Ala-Val-Tyr-Phe-Ala-His-Leu-Asp-Ile-Ile-Trp (Suc-DEEAVYFAHLDIIW) [IRL-1620]”, in the experiment with normal rats, the “Cerebral blood flow (CBF)” value is on record as “significant elevation”. The “Protein expression of ETB receptors (immunoblotting)” value in the experiment on postnatal rat brain [1] (IRL-1620 5 μg/kg IV x3 on postnatal day 21, brain at day 28, vs control) is listed as “increased”. In addition, in the experiment on postnatal rat brain [1] (setting [3]), the “Overall VEGF expression (immunoblotting)” value is “significantly enhanced” and the “Overall expression of NGF (immunoblotting)” value was “comparable”. Besides, in the experiment with postnatal rat brain [2], the “Intensity of ETB receptor staining in cerebral vasculature and cortex” value is given as “significantly higher”; the “Intensity of NGF staining and number of NGF-positive cells, cortex or subventricular zones” value is recorded as “did not alter”; the “Intensity of VEGF staining” value is “further increase”; the “Number of VEGF-positive vessels” value is “further increase”.

Values taken from patent US10561704B2, “Compositions and methods for treating neuropsychiatric disorders using an endothelin-B receptor agonist” (MIDWESTERN UNIVERSITY, priority 2013, dated 2020).
